Experimental data from US11591326B2, “Inhibitors of protein arginine methyltransferase 5 (PRMT5), pharmaceutical products thereof, and methods thereof” (PHARMABLOCK SCIENCES (NANJING), INC., priority 2018, dated 2023).

Tests used:
[1] = tested on: Glioblastoma U-251 cell; assay: Cell proliferation inhibition, U-251 (CellTiter-Glo); format: cell-based; details: Homo sapiens, U-251, incubated for 12 days (read after 8 or 12 days)
Source text: Materials and Cell Lines: Z-138, U251, and MIA PaCa2 cells were purchased from ATCC (American Type Culture Collection, Manassas, Va.) and Chinese Academy of Science (Shanghai, China). Iscove's Modified Dulbecco's Medium (IMDM), Dulbecco's Modified Eagle Medium (DMEM), penicillin-streptomycin, heat inactivated fetal bovine serum (FBS), and horse serum was purchased from ThermoFisher, Waltham, Mass., USA. Corning 96- and 384-well cell culture plates were purchased from ThermoFisher, Waltham, Mass., USA. Cell-Titer Glo® was purchased from Promega Corporation, Madison, Wis., USA.
In order to evaluate the inhibitory ability of compounds synthesized on the proliferation of the Glioblastoma U-251 cell, exponentially growing cells were seeded in the cell culture media of DMEM with 10% FBS and 1% penicillin-streptomycin at a concentration of 10000 cells/ml in a 384-well plate with 20 ul per well and incubated overnight at 37° C., 5% CO2 incubator. Compounds were prepared as 10-point, 3-fold serial dilutions in DMSO, beginning at 6 mM. 1 μl of DMSO solutions from the compound stock plates were added to 99 ul of cell culture media (final top concentration of compound in the assay was 30 uM and the final concentration of DMSO was 0.5%). 20 μL of compound solutions in media were added to each well of U-251 cell plates. After adding compound solutions, assay plates were incubated for 12 days at 37° C., 5% CO2. During this incubation period, cell culture media with freshly dissolved testing compounds was changed every 4 days. After removing old media from cell plates, 40 ul of media with testing compounds dissolved, which were prepared by adding 1 ul of compound DMSO serial solutions to 199 ul of cell media, were added to the assay plates with the same layout as they were initially prepared. After 8 or 12 days, cell viability was measured using the CellTiter-Glo assay kit from Promega (Madison, Wis., USA) by quantitating the ATP present in the cell cultures. 20 μL of CellTiter-Glo reagent was added to each well of the cell plates. Luminescence was read after 10 minute of incubation with the Envision multiple plate reader from PerkinElmer (Waltham, Mass., USA). The concentrations of compounds inhibiting cell viability by 50% (IC50 values) were determined using a sigmoidal dose-response model (variable slopes, four parameters) in Prism 7 (La Jolla, Calif., USA).

[2] = target: Human recombinant PRMT5 in complex with human recombinant MEP50 (Homo sapiens (Human), UniProt O14744); assay: PRMT5/MEP50 AlphaLISA enzyme inhibitory assay; format: biochemical; details: PRMT5/MEP50 25 nM, SAM 10 μM, Biotin-H4 peptide 30 nM
Summary of the method: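 Insect-cell-expressed PRMT5/MEP50 (25 nM) preincubated with SAM (10 μM), then 15 min with compound in pH 8.5 Tris buffer, 1% DMSO. Biotin-H4(1–21) peptide (30 nM) reaction ran 120 min at room temperature. H4R3 methylation detected by AlphaLISA; IC50 from four-parameter sigmoidal fit.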

[3] = tested on: Z-138 tumor cells; assay: Mantle cell lymphoma (MCL) Z-138 xenograft efficacy study; format: in vivo, CB-17 female SCID mice; details: administered orally BID for 21 days
Description: For the in vivo efficacy studies, CB-17 female SCID mice (19-21 g; 10-12 weeks) were purchased from Shanghai SLAC laboratory animal CO. LTD. Each mouse was inoculated subcutaneously at the right flank with Z-138 tumor cells (5×10^6 cells/mouse, 50% Matrigel) in 0.2 mL of a mixture of base media and Matrigel (RPMI:Matrigel, 1:1) for tumor development. The treatments were started when the mean tumor size reached 121.55 mm^3, which was 11 days after inoculation. Mice were assigned into groups using a randomized block design. Testing compounds or vehicle (5% DMSO+45% PEG400+50% H2O) was administered orally BID for 21 days. Body weights were measured three times per week for the whole duration of the study. Tumor size was measured at the same schedule in two dimensions using a caliper, and the volume was expressed in cubic millimeters. Animals were euthanized 6 h after the final dose on day 21, at which time tumors were collected for analysis.

Human recombinant PRMT5 in complex with human recombinant MEP50, sequence (O14744 whole entry): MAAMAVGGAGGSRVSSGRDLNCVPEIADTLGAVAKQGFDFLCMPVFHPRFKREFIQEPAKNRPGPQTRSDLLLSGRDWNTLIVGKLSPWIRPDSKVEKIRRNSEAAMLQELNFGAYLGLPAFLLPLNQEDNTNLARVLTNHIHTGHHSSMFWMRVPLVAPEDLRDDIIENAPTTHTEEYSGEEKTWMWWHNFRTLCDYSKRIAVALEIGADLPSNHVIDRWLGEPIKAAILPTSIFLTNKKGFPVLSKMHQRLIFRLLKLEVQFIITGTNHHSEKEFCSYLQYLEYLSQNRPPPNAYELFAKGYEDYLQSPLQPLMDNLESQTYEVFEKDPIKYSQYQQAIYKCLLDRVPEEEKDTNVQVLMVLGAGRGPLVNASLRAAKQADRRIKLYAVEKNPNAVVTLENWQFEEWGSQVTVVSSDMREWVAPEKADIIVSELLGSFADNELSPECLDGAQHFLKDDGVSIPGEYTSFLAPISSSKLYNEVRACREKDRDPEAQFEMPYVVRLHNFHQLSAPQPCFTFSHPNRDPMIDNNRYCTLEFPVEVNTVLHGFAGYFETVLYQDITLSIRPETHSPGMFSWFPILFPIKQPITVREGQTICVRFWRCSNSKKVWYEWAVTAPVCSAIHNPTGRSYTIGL
Human recombinant PRMT5 in complex with human recombinant MEP50, sequence (Q9BQA1 whole entry partner): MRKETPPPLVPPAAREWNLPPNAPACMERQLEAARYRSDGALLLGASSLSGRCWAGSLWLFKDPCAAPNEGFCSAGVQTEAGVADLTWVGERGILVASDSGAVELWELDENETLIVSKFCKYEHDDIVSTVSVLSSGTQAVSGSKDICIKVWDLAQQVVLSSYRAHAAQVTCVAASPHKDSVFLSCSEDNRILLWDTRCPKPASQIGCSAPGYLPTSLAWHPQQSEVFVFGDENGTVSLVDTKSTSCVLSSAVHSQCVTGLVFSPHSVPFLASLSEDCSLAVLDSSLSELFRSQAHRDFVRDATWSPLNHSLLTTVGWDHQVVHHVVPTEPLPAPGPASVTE

Row | SMILES | IC50 [1] [µM] | IC50 [2] [nM] | result in Z-138 xenograft efficacy studies (tumor volume change, FIG. 1) [3]
1 | CC(=O)N1CCC(Nc2ccc3c(c2)C(=O)N(C[C@H](O)CN2CCc4ccccc4C2)CC3)CC1 [Compound 24a, (R)-7-((1-acetylpiperidin-4-yl)amino)-2-(3-(3,4-dihydroisoquinolin-2(1H)-yl)-2-hydroxypropyl)-3,4-dihydroisoquinolin-1(2H)-one] | 0.097 | 13 | 
2 | CC(=O)N1CCC(Nc2ccc3c(c2)C(=O)N(C[C@H](O)CN2CCc4ccccc4C2)CCO3)CC1 [Compound 52a, (R)-7-((1-acetylpiperidin-4-yl)amino)-4-(3-(3,4-dihydroisoquinolin-2(1H)-yl)-2-hydroxypropyl)-3,4-dihydrobenzo[f][1,4]oxazepin-5(2H)-one] | 0.293 | 80 | promising result
3 | CC(=O)N1CCC(Nc2cc(C(=O)NC[C@H](O)CN3CCc4ccccc4C3)ncn2)CC1 [Compound C3, reference compound] | 0.17 |  | 
